In article PMC11968394, “The effect of deuterated PLK1 inhibitor on its safety and efficacy in vivo” (Frontiers in Oncology, 2025):
Where two headings read alike, the source gives them in different places.

Assay: Caco-2 permeability assay
Assay type: in vitro ADME
Settings: human; for Papp A→B at 2 h, 5 μM / Papp B→A at 2 h, 5 μM: Caco-2, 5 μM
Protocol: Caco-2 cells were cultured in 10% FBS DMEM for 14-21 days before assays. […] HBSS was added to the opposite chamber. After 2 hours incubation at 37°C, samples were analyzed by LC-MS/MS. Fluorescein leakage was tested by adding 100 μM fluorescein to the upper chamber and measuring fluorescence after 30 minutes.

[1] = Caco-2, Caco-2, B-A, read-out: Recovery B-A%

| recovery at 2 h, 5 μM (Caco-2, Caco-2, A-B, read-out: Recovery A-B%) [%] | recovery at 2 h, 5 μM [1] [%] | Papp A→B at 2 h, 5 μM [×10⁻⁶ cm/s] | Papp B→A at 2 h, 5 μM [×10⁻⁶ cm/s] | SMILES |
| --- | --- | --- | --- | --- |
| 78.5 | 101 | 0.9 | 26.1 | C[C@H]1O[C@@H](O[C@H]2[C@@H](O)C[C@H](O[C@H]3[C@@H](O)C[C@H](O[C@H]4CC[C@@]5(C)[C@H](CC[C@@H]6[C@@H]5C[C@@H](O)[C@]5(C)[C@@H](C7=CC(=O)OC7)CC[C@]65O)C4)O[C@@H]3C)O[C@@H]2C)C[C@H](O)[C@@H]1O [Digoxin] |
|  | 84.9 | 22.3 | 14.7 | CC(C)NCC(O)COc1cccc2ccccc12 (stereo not shown) [Propraolol, Propranolol] |
